Measured values taken from patent US11535621B2, “Heterobicyclic amides as inhibitors of CD38” (Ribon Therapeutics, Inc., priority 2019, dated 2022).

Biological target: Human CD38 (Homo sapiens (Human), UniProt P28907)
Assay: CD38 enzyme assay
Type: biochemical
Details: 2 nM CD38, NAD+ substrate, absorbance at 405 nm
In short: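 IC50 values come from fitting % inhibition against compound concentration with a 4-parameter logistic, or a 3-parameter fit with top/bottom fixed at 100/0 or Hill at 1. Inhibition is scaled between DMSO wells and positive-control wells treated with a quinolinone CD38 inhibitor.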

Sequence of Human CD38 (P28907 whole entry): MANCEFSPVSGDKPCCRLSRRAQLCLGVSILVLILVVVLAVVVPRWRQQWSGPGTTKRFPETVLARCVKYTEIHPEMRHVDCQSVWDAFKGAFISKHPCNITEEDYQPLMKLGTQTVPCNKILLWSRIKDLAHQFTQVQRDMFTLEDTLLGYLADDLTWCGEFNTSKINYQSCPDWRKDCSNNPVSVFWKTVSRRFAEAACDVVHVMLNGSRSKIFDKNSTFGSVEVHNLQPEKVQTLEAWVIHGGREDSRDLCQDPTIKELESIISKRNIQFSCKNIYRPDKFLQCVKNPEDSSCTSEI

| SMILES | IC50 |
| --- | --- |
| COCCO[C@H]1CC[C@H](NC(=O)c2nc(-n3ccnc3)nc3cc[nH]c23)CC1 [Example 7, 2-(1H-Imidazol-1-yl)-N-((1r,4r)-4-(2-methoxyethoxy)cyclohexyl)-5H-pyrrolo[3,2-d]pyrimidine-4-carboxamide] | 10 to 100 nM |
| COCCO[C@H]1CCC[C@H](NC(=O)c2nc(-n3ccnc3)nc3cc[nH]c23)C1 [Example 124a, 2-(1H-imidazol-1-yl)-N-((1S,3S)-3-(2-methoxyethoxy)cyclohexyl)-5H-pyrrolo[3,2-d]pyrimidine-4-carboxamide] | 10 to 100 nM |
| Cn1cc(NC(=O)c2nc(-n3ccnc3)nc3cc[nH]c23)cn1 [Example 99, 2-(1H-Imidazol-1-yl)-N-(1-methyl-1H-pyrazol-4-yl)-5H-pyrrolo[3,2-d]pyrimidine-4-carboxamide] | < 10 nM |
| O=C(Nc1ccc(N2CCC(N3CCOCC3)CC2)nc1)c1nc(-n2ccnc2)nc2cc[nH]c12 [Example 158] | 10 to 100 nM |
| C[C@@](O)(C(=O)N[C@H]1CC[C@H](NC(=O)c2nc(-n3ccnc3)nc3cc[nH]c23)CC1)C(F)(F)F (single isomer, unassigned) [Example 127a] | 10 to 100 nM |
| CNC(=O)C[C@H]1CC[C@H](NC(=O)c2nc(-n3ccnc3)cc3cn[nH]c23)CC1 [Example 199, 5-(1H-imidazol-1-yl)-N-((1r,4r)-4-(2-(methylamino)-2-oxoethyl)cyclohexyl)-1H-pyrazolo[3,4-c]pyridine-7-carboxamide] | 10 to 100 nM |
| O=C(NCc1c(F)cccc1C(F)(F)F)c1cc(-n2ccnc2)nc2cn[nH]c12 [Example 15, N-(2-Fluoro-6-(trifluoromethyl)benzyl)-5-(1H-imidazol-1-yl)-1H-pyrazolo[4,3-b]pyridine-7-carboxamide] | 100 to 1000 nM |
| COCCO[C@H]1CC[C@H](NC(=O)c2cc(-n3ccnc3)c(F)c3cc[nH]c23)CC1 [Example 29, 4-Fluoro-5-(1H-imidazol-1-yl)-N-((1r,4r)-4-(2-methoxyethoxy)cyclohexyl)-1H-indole-7-carboxamide] | 100 to 1000 nM |
| O=C(N[C@H]1CC[C@@H](C(F)(F)F)CC1)c1nc(-n2ccnc2)nc2cn[nH]c12 [Example 161] | 10 to 100 nM |

Test system: B16-F10 tumor
Assay: Efficacy study in a B16F10 model (survival)
Type: in vivo, C57BL/6 mouse
Details: Example 7 300 mg/kg p.o. QD in combination with anti-mPD-L1 10 mg/kg i.p. QW; over vehicle or anti-mPD-L1 treated mice; p value <0.0001
Procedure: B16-F10 tumor cells (ATCC, Cat #CRL-6475) were maintained in vitro as a monolayer culture in DMEM medium (Gibco, Cat #11995-040) supplemented with 10% heat inactivated fetal bovine serum (Biological Industries, Cat #04-002-1A), 100 U/mL penicillin and 100 µg/mL streptomycin (Hyclone, Cat #SV30010) at 37° C. in an atmosphere of 5% CO2 in air. The tumor cells were routinely subcultured twice weekly by trypsin-EDTA (Gibco, Cat #25200-072) treatment. The cells growing to a confluency around 70%-80% were harvested and counted for tumor inoculation. The cultured B16-F10 cells were harvested, re-suspended in base medium at a density of 2×10^7 cells/mL with viability>90%. 6-8 weeks of Female C57BL/6 mouse (Shanghai LingChang Biotech Co., LTD) was inoculated subcutaneously at the right flank with 1×10^6 in 0.05 mL base medium for tumor development. Tumors were calipered in two dimensions to monitor growth as the mean volume approached the desired range. Tumor volume (TV) was calculated using the formula: TV=0.5 a×b2 where a and b are the long and short diameters of the tumor.
Mice were assigned into 4 groups with 12 mice per group. […] The tumor sizes were measured three times per week during the treatment. Survival was monitored with tumor volume exceeding 2000 mm3 as endpoint. […]

| SMILES | percent survival of B16-F10 tumor bearing mice |
| --- | --- |
| COCCO[C@H]1CC[C@H](NC(=O)c2nc(-n3ccnc3)nc3cc[nH]c23)CC1 [Example 7, 2-(1H-Imidazol-1-yl)-N-((1r,4r)-4-(2-methoxyethoxy)cyclohexyl)-5H-pyrrolo[3,2-d]pyrimidine-4-carboxamide] | significant survival benefit |
